# US12268665B2, “Combination of immunotherapies with MDM2 inhibitors” (ASCENTAGE PHARMA (SUZHOU) CO., LTD., priority 2018, dated 2025)
# Assays:
# [1] = tested on: MH-22A murine hepatoma syngeneic model; experiment: In vivo efficacy study in MH-22A model; design: species or system mouse; details: for RTV (Mean ± SEM) d15 / T/C (%) d15: anti-PD-1 10 mg/kg i.p. biw; for Response rate (%) d15: anti-PD-1 10 mg/kg, n=10
# Method: Tumor volumes were measured twice weekly in two dimensions using a caliper, and the volume was expressed in mm^3 using the formula: Tumor Volume(mm^3)=0.5a×b^2 where a and b are the long and short diameters of the tumor, respectively.
# Relative tumor volume (RTV) was calculated using the following formula: RTV=Vt/V1 Where V1 and Vt are the average tumor volumes on the first day of treatment (day 1) and the average tumor volumes on a certain time point (day t).
# Synergy score was calculated using the following formula (Clarke R, Breast Cancer Research & Treatment, 1997, 46(2-3):255-278): Synergy score=((A/C)×(B/C))/(AB/C); A: response to treatment A; B: response to treatment B; C: response to vehicle control; AB: combination of treatment A and B.
# Standard NCI procedures were used to calculate tumor parameters. Percent tumor growth inhibition (% T/C) was calculated as the mean RTV of treated tumors (T) divided by the mean RTV of control tumors (C)×100%. The percentage T/C value is an indication of antitumor effectiveness: a value of T/C<42% is considered significant antitumor activity by the NCI. A T/C value <10% is considered to indicate highly significant antitumor activity, and is the level used by the NCI to justify a clinical trial if toxicity and certain other requirements are met (termed DN-2 level activity). A body weight loss nadir (mean of group) of greater than 20%, or greater than 20% of drug deaths are considered to indicate an excessively toxic dosage.
# (§1) Each mouse was inoculated subcutaneously at the right flank region with MH-22A tumor cells (5×10^6) in 0.2 mL of PBS for tumor development. The treatments were initiated when the mean tumor size reached ˜65 mm^3. The test articles were administered to the tumor-bearing mice according to the regimen shown in the experimental design Table 3. The day of start dosing was defined as d1.
# [2] = tested on: MH-22A syngeneic tumor model; experiment: Efficacy in the TIL analysis study, MH-22A model (d7); assay type: in vivo, mouse; details: APG-115 10 mg/kg p.o. q2d; anti-PD-1 5 mg/kg i.p. biw; epacadostat 100 mg/kg p.o. bid; × 6 d
# Method: as §1, with “were started” for “were initiated”, “reached 60” for “reached ˜65”, “Table 6.” for “Table 3.”
# Mice bearing MH-22A murine hepatoma tumors were treated with various agent(s) under different regimens as indicated. Isotype control antibody was included in the control.
# [3] = tested on: tumor infiltrating cells in MC38 tumors; experiment: TIL analysis by flow cytometry, p53mut MC38 tumors; assay type: in vivo
# Method: The live/dead fixable dye (Invitrogen) was used to exclude dead cells. The FOXP3 kit from eBioscience was used for FOXP3 staining. Cells were washed and stained for 30 min on ice with indicated antibodies in MACS buffer or Brilliant staining buffer. Samples were than analyzed on Life Technology Attune NxT flow cytometer.
# [4] = tested on: Trp53 mutant MC38 syngeneic murine colon tumor; experiment: In vivo efficacy study in MC38 model; design: species or system mouse; details: for T/C (%) d17 / RTV (Mean ± SEM) d17: anti-PD-1 5 mg/kg i.p. biw; for RTV (Mean ± SEM) d17: C57BL/6 mice
# Method: as §1, with “with MC38” for “with MH-22A”, “cells (5×10^5)” for “cells (5×10^6)”, “in 0.1” for “in 0.2”, “reached ˜63” for “reached ˜65”, “Table 10.” for “Table 3.”
# Efficacy of combination treatment with APG-115 plus anti-PD-1 antibody was further evaluated in a Trp53 mutant MC38 syngeneic mouse tumor model on a C57BL/6 background.
# [5] = tested on: advanced soft tissue sarcoma and other solid tumors; experiment: Phase I study CTR20170975: antitumor activity; assay type: in vivo, human
# Method: (§2) Patients with advanced soft tissue sarcoma (STS), adenoid cystic carcinoma (ACC) or other solid tumors in China (CTR20170975) were treated with APG-115. In dose escalation, patients received APG-115 (100-200 mg) orally QOD for first 21 days of a 28-day cycle, until disease progression. Study objectives include safety (primary endpoint), pharmacokinetics (PK), pharmacodynamics (PD), and antitumor activity assessed every 8 weeks.
# (§3) This is a Phase I study (CTR20170975) is designed to assess the safety, dose-limiting toxicities (DLT), the maximum tolerated dose (MTD)/recommended phase 2 dose (RP2D), pharmacokinetics (PK), pharmacodynamics (PD) profile and anti-tumor activity of orally administered APG-115 in Chinese patients with advanced soft tissue sarcoma and other solid tumors.
# Among of the 14 patients, post baseline tumor measurements were obtained in 13 patients, as one subject was just starting the treatment of Cycle 2.
# [6] = clinical; design: species or system human; details: in vivo
# Method: as §2, §3
# [7] = Phase I study APG-115-US-001: pharmacokinetics (LC/MS/MS, K2EDTA human plasma); assay type: in vivo; details: dose range of 20-300 mg
# Method: For PK study of APG-115, APG-115 in K2EDTA human plasma was determined using an LC/MS/MS method using D5-APG-115 as the internal standard (IS). APG-115 and the IS were extracted using protein precipitation extraction from human plasma. […] MS/MS detection was set at mass transitions of m/z 642.3→246.3 for APG-115 and m/z 647.4→246.1 for D5-APG-115 (IS) in TIS positive mode.
# [8] = tested on: serum MIC-1; experiment: Phase Ib/II study with pembrolizumab: pharmacodynamics; assay type: in vivo, human; details: after APG-115 treatment, preliminary
# Method: In the dose escalation study, APG-115 is combined with pembrolizumab of for the treatment of patients with metastatic solid tumor. Four dose levels of APG-115 are tested: 50, 100, 150, and 200 mg. APG-115 is administrated orally every other day (QOD) for consecutive 2 weeks of a 21-day-cycle. Pembrolizumab is administrated at 200 mg IV on day 1 of a 21-day-cycle. The primary objectives of the dose escalation study is to determine safety, tolerability, and determination of MTD and RP2D; other anti-tumor assessments (assessed per RECIST v1.1 every 6 weeks) are the secondary objectives.
# [9] = APG-115 10 mg/kg p.o. qd, epacadostat 100 mg/kg p.o. bid
smiles,measurement,setting,value
CCN1[C@@H](C(=O)NC23CCC(C(=O)O)(CC2)CC3)[C@H](c2cccc(Cl)c2F)[C@]2(C(=O)Nc3cc(Cl)ccc32)C12CCCCC2 [APG-115],RTV (Mean ± SEM) d15,[1]; [9],37.8 ± 6.8
same,T/C (%) d15,[1]; [9],98%
same,Response rate (%) d15,"[1]; APG-115 10 mg/kg, epacadostat 100 mg/kg",0%
same,RTV (Mean ± SEM) d15,[1]; APG-115 50 mg/kg p.o. qd,36.2 ± 8.7
same,T/C (%) d15,[1]; APG-115 50 mg/kg p.o. qd,94%
same,Response rate (%) d15,[1]; APG-115 50 mg/kg,0%
same,antitumor activity as single agents,"[1]; APG-115 10 and 50 mg/kg, epacadostat 100 mg/kg",did not exert antitumor activity
same,RTV (Mean) d7,[2],12.8
same,T/C (%) d7,[2],83%
same,"CD4+ T cells, NK cells, MDSCs, and regulatory T (Treg) cells",[3],no significant changes
same,T/C (%) d17,[4]; APG-115 10 mg/kg p.o. q2d,73%
same,RTV (Mean ± SEM) d17,[4]; APG-115 10 mg/kg p.o. q2d,15.3 ± 2.7
same,T/C (%) d17,[4]; APG-115 50 mg/kg p.o. q2d,94%
same,RTV (Mean ± SEM) d17,[4]; APG-115 50 mg/kg p.o. q2d,19.8 ± 2.2
same,antitumor activity as single agent,[4]; APG-115 10 and 50 mg/kg,minimal antitumor activity
same,target lesion decrease in the PR patient,"[5]; 150 mg, after 4 months withdraw, RECIST",~64%
same,"confirmed PR (Partial Response), patients","[5]; 150 mg, lipomatoid liposarcoma, TP53-WT and MDM2 Amp",1
same,"partial response, patients","[5]; 150 mg, liposarcoma with MDM2 amplification and TP53 wt (Example 5)",1
same,patients with SD as the best overall response,[5]; 13 patients (Example 5),5
same,Tmax,[6]; human,4 to 6 h
same,AUC and Cmax versus dose,[6],generally increase dose proportionally
same,Cmax and AUC0-t versus dose,[6]; po,approximately dose proportional increase
same,AUC and Cmax versus dose,[7],generally increase dose proportionally
same,serum MIC-1 levels,[8],elevated
